Values after ≈ are worked out from the molar mass of the structure shown. Values joined by “and” are separate entries in the source; they are usually repeats but may differ in a detail not shown here. Identical values can stand only once. “Also recorded” adds a separate entry of the source. Peptide text beside a SMILES is read from it. * marks the point of attachment. βNA = c1ccc2cc(N*)ccc2c1

One data set concerns P. aeruginosa. Type of data set: cell-based, Pseudomonas aeruginosa. Particulars: for susceptibility of strain: strain AR-BANK#0229.
For data set [1], the system named is P. aeruginosa AR-BANK#0229. Put plainly: Neutropenic mouse thigh infection model. Format: in vivo. Particulars: 50 and 100 mg/kg SC q6h, neutropenic mice.
For data set [2] the following is noted: mice; cited from earlier work.
The subject of a further data set is Acinetobacter spp. As to the kind of experiment: MIC in low iron media, 198-member panel of Acinetobacter spp. clinical isolates. Format: cell-based.
The test system of the next data set is K. pneumoniae. Type of data set: cell-based. The following applies: Klebsiella pneumoniae.
In data set [3] the test system is carbapenem-resistant A. baumannii (CRAB). Put plainly: MIC in low iron media, 98-member carbapenem-resistant A. baumannii. Format: cell-based.
The subject of the next data set is Caco-2. Put plainly: Caco-2 permeability. Format: in vitro ADME.
Data set [4] in a line: Plasma protein binding, mouse. Type of data set: in vitro ADME.
The nature of data set [5]: Plasma protein binding, human. Format: in vitro ADME.
A further data set relates to 8 CYP enzymes. Put plainly: CYP inhibition panel. Format: in vitro ADME. Particulars: 7 of the 8 CYP enzymes tested, 30 μM.
Data set [6] has as its system human primary hepatocytes. Put plainly: Cytotoxicity in human primary hepatocytes. The following applies: maximal dose of 100 μM. Format: cell-based.
Data set [7] deals with 6 ion channels, including hERG. As to the kind of experiment: Ion channel panel. Particulars: 30 μM maximal dose.
Data set [8] is described as follows: Pharmacokinetics in CD-1 mice, 50 mg/kg sc or iv. The following applies: for Sample Conc (individual mouse plasma): sc 50 mg/kg. Type of data set: in vivo.
Data set [9] concerns Acinetobacter spp. isolates resistant to 2. Put plainly: MIC of 2 in combination with efflux pump inhibitors. Format: cell-based. Particulars: for direct effect of efflux pump inhibitor on growth: 2 μg/mL for CCCP and 32 μg/mL for PAβN.
Data set [10] concerns MDR strains of K. pneumoniae, Acinetobacter spp., and P. aeruginosa. Put plainly: MIC50 summary against MDR strains. Type of data set: cell-based.

As to `NCC[C@H](O)C(=O)N[C@@H]1C[C@H](N)[C@@H](O[C@H]2O[C@H](CN)[C@@H](O)[C@H](O)[C@H]2O)[C@H](O)[C@H]1O[C@H]1O[C@H](CO)[C@@H](O)[C@H](N)[C@H]1O` [amikacin], the susceptibility of strain result with P. aeruginosa is reported as “susceptible”.
With `CC(C)(O/N=C(\C(=O)N[C@H]1CN2CC(C(=O)NCCN3C(=O)c4cc(O)c(O)cc4C3=O)=C(C(=O)O)N2C1=O)c1csc(N)n1)C(=O)O` [Compound 1], in data set [1], the “efficacy (thigh bacterial burden, CFU)” value is “not found to have efficacy”. For the same molecule, the “plasma concentration at the 6-hour timepoint” value in data set [2] is recorded as “about 0.35 mg/mL”.
In the case of `CNC(C)C1CCC(N)C(OC2C(N)CC(N)C(OC3OCC(C)(O)C(NC)C3O)C2O)O1` (stereo not shown) [gentamicin], the susceptibility of strain entry in the data set on P. aeruginosa is given as “susceptible”.
As to `CC(C)(O/N=C(\C(=O)N[C@@H]1C(=O)N2C(C(=O)[O-])=C(C[n+]3ccccc3)CS[C@H]12)c1csc(N)n1)C(=O)O` [Ceftazidime (4), ceftazidime], in the data set with Acinetobacter spp. (Acinetobacter), the MIC90 is over 64 µg/mL.
Consider `CC(C)(O/N=C(\C(=O)N[C@H]1CN2CC(C(=O)NCCN3C(=O)c4cc(O)c(O)cc4C3=O)=C(C(=O)O)N2C1=O)c1nc(N)sc1Cl)C(=O)O` [Compound 2, (S,Z)-6-(2-(2-amino-5-chlorothiazol-4-yl)-2-(((2-carboxypropan-2-yl)oxy)imino)acetamido)-2-((2-(5,6-dihydroxy-1,3-dioxoisoindolin-2-yl)ethyl)carbamoyl)-5-oxo-6,7-dihydro-1H,5H-pyrazolo[1,2-a]pyrazole-3-carboxylic acid], for which the figures for the MIC50 (in the data set with P. aeruginosa (Pseudomonas aeruginosa); in the data set on K. pneumoniae; in [10]) were 500 µg/mL (≈ 693 µM), 1000 µg/mL (≈ 1390 µM) and at most 0.5 µg/mL, respectively. For the same molecule, the “fraction of strains with MICs >=16 μg/mL” value was 12% in the data set on Acinetobacter spp. (24 of 198 tested strains) and 15% in [3] (carbapenem-resistant subgroup, 15 of 98). The same molecule displayed an MIC90 in the data set on Acinetobacter spp. (Acinetobacter) of over 16 µg/mL. In addition, the “share of panel that could be susceptible” value with Acinetobacter spp. (full 198 member panel, 2 with 20 μg/mL coadministration of sulbactam) is recorded as 98%. In [3] (98 CRAB subset, cefiderocol breakpoint <=4 μg/mL applied, 81 out of 98), the “susceptibility of panel (isolates susceptible)” value is 83%. Further, the Caco-2 permeability entry in the data set with Caco-2 was “poor Caco-2 permeability”. The protein-bound in [4] is listed as 94%; in data set [5], 88%. Further, in the data set on 8 CYP enzymes, the CYP inhibition entry is listed as “does not inhibit”. Moreover, the cytotoxicity entry in data set [6] is recorded as “not found”. For the same molecule, in [7], the ion channel inhibition result is “did not inhibit these channels”. Moreover, the “plasma level at the 6h time point” value in data set [8] (CD-1 mice, by both dosing routes (sc and iv)) is reported as over 1.0 mg/mL. In addition, the “Sample Conc (individual mouse plasma)” value was 48689 ng/mL and 44921 ng/mL in data set [8] (0.167 h); 14355 ng/mL and 14094 ng/mL in [8] (0.5 h); 3515 ng/mL and 3186 ng/mL in [8] (1 h); 2876 ng/mL in data set [8] (2 h); 1534 ng/mL and 739 ng/mL in data set [8] (4 h); 1102 ng/mL and 1425 ng/mL in data set [8] (6 h). Also, the “Sample Conc (individual mouse plasma)” value in data set [8] (8 h) is 1473 ng/mL and 1126 ng/mL; in data set [8] (24 h) it was 545 ng/mL and 579 ng/mL. In data set [1], the “efficacy (thigh bacterial burden, CFU)” value is reported as “dose-dependent efficacy; also recorded: dose-dependent reduction in CFU values”. Besides, the “effect of efflux pump inhibitors on MIC of 2” value in [9] (combined with CCCP 2 μg/mL or PAβN 32 μg/mL) was “no consistent effect on MIC values”. Besides, the “effect of combination with CCCP” value in [9] (isolate PR-452, CCCP 2 μg/mL) is listed as “Potential synergistic effects”.
With `N#CC(C#N)=NNc1cccc(Cl)c1` [CCCP, carbonyl cyanide 3-chlorophenylhydrazone, reference compound], in data set [9], the “direct effect of efflux pump inhibitor on growth” value was “No significant inhibition effect on growth”.
In the data set with Acinetobacter spp. (Acinetobacter), `C[C@H]1[C@H](NC(=O)/C(=N\OC(C)(C)C(=O)O)c2csc(N)n2)C(=O)N1S(=O)(=O)O` [Aztreonam (3), aztreonam] gave an MIC50 of over 32 µg/mL and an MIC90 of over 32 µg/mL.
In the case of colistin, the susceptibility of strain result with P. aeruginosa is recorded as “susceptible”.
With `C[C@@H](O)[C@H]1C(=O)N2C(C(=O)O)=C(S[C@@H]3CN[C@H](C(=O)N(C)C)C3)[C@H](C)[C@H]12` [Meropenem (5), meropenem, reference compound], the MIC90 (in the data set on Acinetobacter spp. (Acinetobacter); in data set [3] (Acinetobacter baumannii)) was over 64 µg/mL throughout. Also, the MIC50 in [10] is over 8 µg/mL.
Take `CC1(C)[C@H](C(=O)O)N2C(=O)C[C@H]2S1(=O)=O` [Compound 10, sulbactam]: in the data set on Acinetobacter spp. (24 isolates with MIC of 2 >=16 μg/mL, 19/24), the “isolates with MICs <=16 μg/mL” value is on record as 79%.
For the molecule `NC(N)=NCCC[C@H](NC(=O)[C@@H](N)Cc1ccccc1)C(=O)Nc1ccc2ccccc2c1` [PaβN, phenylalanine-arginine β-naphthylamide, reference compound] (H-Phe-Arg-βNA), in data set [9], the “direct effect of efflux pump inhibitor on growth” value is “No significant inhibition effect on growth”.

(Values after PMC11444265 (European journal of medicinal chemistry, 2021).)
